In ChEMBL document CHEMBL2010748, “Structure-Activity Relationship Studies of HIV-1 Integrase Oligonucleotide Inhibitors” (ACS Med Chem Lett, 2011):

Target: Human immunodeficiency virus type 1 integrase (Human immunodeficiency virus 1, UniProt Q7ZJM1)
Assay: Inhibition of Human immunodeficiency virus 1 integrase 3'-processing activity expressed in Escherichia coli using 21-mer DNA and Mg2+ after 2 hrs by polyacrylamide gel electrophoresis

Chain of Human immunodeficiency virus type 1 integrase (Q7ZJM1 whole entry): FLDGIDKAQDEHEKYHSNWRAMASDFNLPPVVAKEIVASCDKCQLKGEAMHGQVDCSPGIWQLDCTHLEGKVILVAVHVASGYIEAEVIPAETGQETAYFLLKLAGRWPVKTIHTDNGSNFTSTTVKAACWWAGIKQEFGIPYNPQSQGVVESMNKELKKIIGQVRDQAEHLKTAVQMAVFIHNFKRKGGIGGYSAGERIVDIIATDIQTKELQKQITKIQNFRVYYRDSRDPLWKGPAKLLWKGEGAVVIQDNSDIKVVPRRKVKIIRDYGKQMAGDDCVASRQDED

Compound	IC50 [µM]
Cc1cn([C@H]2C[C@H](OP(=O)(O)OC[C@H]3O[C@@H](n4cc(C)c(=O)[nH]c4=O)C[C@@H]3OP(=O)(O)OC[C@H]3O[C@@H](n4cc(C)c(=O)[nH]c4=O)C[C@@H]3OP(=O)(O)OC[C@H]3O[C@@H](n4cnc5c(=O)[nH]c(N)nc54)C[C@@H]3OP(=O)(O)OC[C@H]3O[C@@H](n4cc(C)c(=O)[nH]c4=O)C[C@@H]3OP(=O)(O)OC[C@H]3O[C@@H](n4cnc5c(=O)[nH]c(N)nc54)C[C@@H]3OP(=O)(O)OC[C@H]3O[C@@H](n4cc(C)c(=O)[nH]c4=O)C[C@@H]3OP(=O)(O)OCCCCCCNC(=S)Nc3ccc(-c4c5cc(Br)c(=O)c(Br)c-5oc5c(Br)c(O)c(Br)cc45)c(C(=O)O)c3)[C@@H](COP(=O)(O)O[C@H]3C[C@H](n4cc(C)c(=O)[nH]c4=O)O[C@@H]3COP(=O)(O)O[C@H]3C[C@H](n4cc(C)c(=O)[nH]c4=O)O[C@@H]3COP(=O)(O)O[C@H]3C[C@H](n4cnc5c(=O)[nH]c(N)nc54)O[C@@H]3COP(=O)(O)O[C@H]3C[C@H](n4cnc5c(=O)[nH]c(N)nc54)O[C@@H]3CO)O2)c(=O)[nH]c1=O	0.05
Cc1cn([C@H]2C[C@H](OP(=O)(O)OC[C@H]3O[C@@H](n4cc(C)c(=O)[nH]c4=O)C[C@@H]3OP(=O)(O)OC[C@H]3O[C@@H](n4cc(C)c(=O)[nH]c4=O)C[C@@H]3OP(=O)(O)OC[C@H]3O[C@@H](n4cnc5c(=O)[nH]c(N)nc54)C[C@@H]3OP(=O)(O)OC[C@H]3O[C@@H](n4cc(C)c(=O)[nH]c4=O)C[C@@H]3OP(=O)(O)OC[C@H]3O[C@@H](n4cnc5c(=O)[nH]c(N)nc54)C[C@@H]3OP(=O)(O)OC[C@H]3O[C@@H](n4cc(C)c(=O)[nH]c4=O)C[C@@H]3O)[C@@H](COP(=O)(O)O[C@H]3C[C@H](n4cc(C)c(=O)[nH]c4=O)O[C@@H]3COP(=O)(O)O[C@H]3C[C@H](n4cc(C)c(=O)[nH]c4=O)O[C@@H]3COP(=O)(O)O[C@H]3C[C@H](n4cnc5c(=O)[nH]c(N)nc54)O[C@@H]3COP(=O)(O)O[C@H]3C[C@H](n4cnc5c(=O)[nH]c(N)nc54)O[C@@H]3COP(=O)(O)O[C@@H]3C[C@@H](CO)N(C(=O)CCCCCNC(=O)c4ccc(C(=O)O)c(-c5c6ccc(=O)cc-6oc6cc(O)ccc56)c4)C3)O2)c(=O)[nH]c1=O	0.32
Cc1cn([C@H]2C[C@H](OP(=O)(O)OC[C@H]3O[C@@H](n4cc(C)c(=O)[nH]c4=O)C[C@@H]3OP(=O)(O)OC[C@H]3O[C@@H](n4cc(C)c(=O)[nH]c4=O)C[C@@H]3OP(=O)(O)OC[C@H]3O[C@@H](n4cnc5c(=O)[nH]c(N)nc54)C[C@@H]3OP(=O)(O)OC[C@H]3O[C@@H](n4cc(C)c(=O)[nH]c4=O)C[C@@H]3OP(=O)(O)OC[C@H]3O[C@@H](n4cnc5c(=O)[nH]c(N)nc54)C[C@@H]3OP(=O)(O)OC[C@H]3O[C@@H](n4cc(C)c(=O)[nH]c4=O)C[C@@H]3O)[C@@H](COP(=O)(O)O[C@H]3C[C@H](n4cc(C)c(=O)[nH]c4=O)O[C@@H]3COP(=O)(O)O[C@H]3C[C@H](n4cc(C)c(=O)[nH]c4=O)O[C@@H]3COP(=O)(O)O[C@H]3C[C@H](n4cnc5c(=O)[nH]c(N)nc54)O[C@@H]3COP(=O)(O)O[C@H]3C[C@H](n4cnc5c(=O)[nH]c(N)nc54)O[C@@H]3COP(=O)(O)OCCCCCCNC(=O)c3ccc(C(=O)O)c(-c4c5ccc(=O)cc-5oc5cc(O)ccc45)c3)O2)c(=O)[nH]c1=O	0.31
Cc1cn([C@H]2C[C@H](OP(=O)(O)OC[C@H]3O[C@@H](n4cc(C)c(=O)[nH]c4=O)C[C@@H]3OP(=O)(O)OC[C@H]3O[C@@H](n4cc(C)c(=O)[nH]c4=O)C[C@@H]3OP(=O)(O)OC[C@H]3O[C@@H](n4cnc5c(=O)[nH]c(N)nc54)C[C@@H]3OP(=O)(O)OC[C@H]3O[C@@H](n4cc(C)c(=O)[nH]c4=O)C[C@@H]3OP(=O)(O)OC[C@H]3O[C@@H](n4cnc5c(=O)[nH]c(N)nc54)C[C@@H]3OP(=O)(O)OC[C@H]3O[C@@H](n4cc(C)c(=O)[nH]c4=O)C[C@@H]3OP(=O)(O)OCCCCCCNC(=S)Nc3ccc(-c4c5ccc(=O)cc-5oc5cc(O)ccc45)c(C(=O)O)c3)[C@@H](COP(=O)(O)O[C@H]3C[C@H](n4cc(C)c(=O)[nH]c4=O)O[C@@H]3COP(=O)(O)O[C@H]3C[C@H](n4cc(C)c(=O)[nH]c4=O)O[C@@H]3COP(=O)(O)O[C@H]3C[C@H](n4cnc5c(=O)[nH]c(N)nc54)O[C@@H]3COP(=O)(O)O[C@H]3C[C@H](n4cnc5c(=O)[nH]c(N)nc54)O[C@@H]3CO)O2)c(=O)[nH]c1=O	0.315
COc1cc2c(-c3cc(C(=O)NCCCCCCOP(=O)(O)OC[C@H]4O[C@@H](n5cnc6c(=O)[nH]c(N)nc65)C[C@@H]4OP(=O)(O)OC[C@H]4O[C@@H](n5cnc6c(=O)[nH]c(N)nc65)C[C@@H]4OP(=O)(O)OC[C@H]4O[C@@H](n5cc(C)c(=O)[nH]c5=O)C[C@@H]4OP(=O)(O)OC[C@H]4O[C@@H](n5cc(C)c(=O)[nH]c5=O)C[C@@H]4OP(=O)(O)OC[C@H]4O[C@@H](n5cc(C)c(=O)[nH]c5=O)C[C@@H]4OP(=O)(O)OC[C@H]4O[C@@H](n5cc(C)c(=O)[nH]c5=O)C[C@@H]4OP(=O)(O)OC[C@H]4O[C@@H](n5cc(C)c(=O)[nH]c5=O)C[C@@H]4OP(=O)(O)OC[C@H]4O[C@@H](n5cnc6c(=O)[nH]c(N)nc65)C[C@@H]4OP(=O)(O)OC[C@H]4O[C@@H](n5cc(C)c(=O)[nH]c5=O)C[C@@H]4OP(=O)(O)OC[C@H]4O[C@@H](n5cnc6c(=O)[nH]c(N)nc65)C[C@@H]4OP(=O)(O)OC[C@H]4O[C@@H](n5cc(C)c(=O)[nH]c5=O)C[C@@H]4O)ccc3C(=O)O)c3cc(OC)c(=O)c(Cl)c-3oc2c(Cl)c1O	0.31
CCCCCCCC/C=C\CCCCCCCC(=O)NCCCOCC(O)COP(=O)(O)O[C@H]1C[C@H](n2cc(C)c(=O)[nH]c2=O)O[C@@H]1COP(=O)(O)O[C@H]1C[C@H](n2cnc3c(=O)[nH]c(N)nc32)O[C@@H]1COP(=O)(O)O[C@H]1C[C@H](n2cc(C)c(=O)[nH]c2=O)O[C@@H]1COP(=O)(O)O[C@H]1C[C@H](n2cnc3c(=O)[nH]c(N)nc32)O[C@@H]1COP(=O)(O)O[C@H]1C[C@H](n2cc(C)c(=O)[nH]c2=O)O[C@@H]1COP(=O)(O)O[C@H]1C[C@H](n2cc(C)c(=O)[nH]c2=O)O[C@@H]1COP(=O)(O)O[C@H]1C[C@H](n2cc(C)c(=O)[nH]c2=O)O[C@@H]1COP(=O)(O)O[C@H]1C[C@H](n2cc(C)c(=O)[nH]c2=O)O[C@@H]1COP(=O)(O)O[C@H]1C[C@H](n2cc(C)c(=O)[nH]c2=O)O[C@@H]1COP(=O)(O)O[C@H]1C[C@H](n2cnc3c(=O)[nH]c(N)nc32)O[C@@H]1COP(=O)(O)O[C@H]1C[C@H](n2cnc3c(=O)[nH]c(N)nc32)O[C@@H]1CO (some centres undefined)	0.2

Further lines, results first:

IC50 [µM]	Compound
0.055	Cc1cn([C@H]2C[C@H](OP(=O)(O)OC[C@H]3O[C@@H](n4cc(C)c(=O)[nH]c4=O)C[C@@H]3OP(=O)(O)OC[C@H]3O[C@@H](n4cc(C)c(=O)[nH]c4=O)C[C@@H]3OP(=O)(O)OC[C@H]3O[C@@H](n4cnc5c(=O)[nH]c(N)nc54)C[C@@H]3OP(=O)(O)OC[C@H]3O[C@@H](n4cc(C)c(=O)[nH]c4=O)C[C@@H]3OP(=O)(O)OC[C@H]3O[C@@H](n4cnc5c(=O)[nH]c(N)nc54)C[C@@H]3OP(=O)(O)OC[C@H]3O[C@@H](n4cc(C)c(=O)[nH]c4=O)C[C@@H]3O)[C@@H](COP(=O)(O)O[C@H]3C[C@H](n4cc(C)c(=O)[nH]c4=O)O[C@@H]3COP(=O)(O)O[C@H]3C[C@H](n4cc(C)c(=O)[nH]c4=O)O[C@@H]3COP(=O)(O)O[C@H]3C[C@H](n4cnc5c(=O)[nH]c(N)nc54)O[C@@H]3COP(=O)(O)O[C@H]3C[C@H](n4cnc5c(=O)[nH]c(N)nc54)O[C@@H]3COP(=O)(O)OCCCCCCNC(=O)c3cc(Cl)c(C(=O)O)c(-c4c5cc(Cl)c(=O)c(Cl)c-5oc5c(Cl)c(O)c(Cl)cc45)c3Cl)O2)c(=O)[nH]c1=O
0.052	Cc1cn([C@H]2C[C@H](OP(=O)(O)OC[C@H]3O[C@@H](n4cc(C)c(=O)[nH]c4=O)C[C@@H]3OP(=O)(O)OC[C@H]3O[C@@H](n4cc(C)c(=O)[nH]c4=O)C[C@@H]3OP(=O)(O)OC[C@H]3O[C@@H](n4cnc5c(=O)[nH]c(N)nc54)C[C@@H]3OP(=O)(O)OC[C@H]3O[C@@H](n4cc(C)c(=O)[nH]c4=O)C[C@@H]3OP(=O)(O)OC[C@H]3O[C@@H](n4cnc5c(=O)[nH]c(N)nc54)C[C@@H]3OP(=O)(O)OC[C@H]3O[C@@H](n4cc(C)c(=O)[nH]c4=O)C[C@@H]3O)[C@@H](COP(=O)(O)O[C@H]3C[C@H](n4cc(C)c(=O)[nH]c4=O)O[C@@H]3COP(=O)(O)O[C@H]3C[C@H](n4cc(C)c(=O)[nH]c4=O)O[C@@H]3COP(=O)(O)O[C@H]3C[C@H](n4cnc5c(=O)[nH]c(N)nc54)O[C@@H]3COP(=O)(O)O[C@H]3C[C@H](n4cnc5c(=O)[nH]c(N)nc54)O[C@@H]3COP(=O)(O)OCCCCCCNC(=O)c3cc(Cl)c(-c4c5cc(Cl)c(O)c(Cl)c5nc5c(Cl)c(O)c(Cl)cc45)c(C(=O)O)c3Cl)O2)c(=O)[nH]c1=O
0.29	Cc1cn([C@H]2C[C@H](OP(=O)(O)OC[C@H]3O[C@@H](n4cc(C)c(=O)[nH]c4=O)C[C@@H]3OP(=O)(O)OC[C@H]3O[C@@H](n4cc(C)c(=O)[nH]c4=O)C[C@@H]3OP(=O)(O)OC[C@H]3O[C@@H](n4cnc5c(=O)[nH]c(N)nc54)C[C@@H]3OP(=O)(O)OC[C@H]3O[C@@H](n4cc(C)c(=O)[nH]c4=O)C[C@@H]3OP(=O)(O)OC[C@H]3O[C@@H](n4cnc5c(=O)[nH]c(N)nc54)C[C@@H]3OP(=O)(O)OC[C@H]3O[C@@H](n4cc(C)c(=O)[nH]c4=O)C[C@@H]3O)[C@@H](COP(=O)(O)O[C@H]3C[C@H](n4cc(C)c(=O)[nH]c4=O)O[C@@H]3COP(=O)(O)O[C@H]3C[C@H](n4cc(C)c(=O)[nH]c4=O)O[C@@H]3COP(=O)(O)O[C@H]3C[C@H](n4cnc5c(=O)[nH]c(N)nc54)O[C@@H]3COP(=O)(O)O[C@H]3C[C@H](n4cnc5c(=O)[nH]c(N)nc54)O[C@@H]3COP(=O)(O)OCCCCCCNC(=O)c3cc(Cl)c(C(=O)O)c(-c4c5cc(Cl)c(=O)cc-5oc5cc(O)c(Cl)cc45)c3Cl)O2)c(=O)[nH]c1=O
